This note sets out measurements from patent US5322846A, “4-methylthiazole derivatives, their methods of preparation and the pharmaceutical compositions in which they are present” (Institut de Recherches Chimiques et Biologiques Appliquees …, priority 1990, dated 1994).

The nature of data set [1]: Acute toxicity in mice (oral, LD50). The conditions noted are these: mouse, in vivo, male mice, single dose, 14-day observation. How it is done:
The products were administered orally in a single dose to male mice with an average weight of 22 g. The mortality was recorded after a 14-day observation period.
The results are expressed in the form of the 50% lethal dose (LD50), i.e. the theoretical dose in mg.kg^-1, administered orally, which causes the death of 50% of the animals.
The majority of the molecules have an LD50 of more than 1 g.kg^-1. These are therefore products with a low toxicity after a single administration.

Data set [2] addresses T1, postsynaptic alpha-adrenergic receptors (Rattus norvegicus, UniProt P43140).
T1 construct: causes contraction of the isolated vas deferens; from tissue; host or cells: isolated rat vas deferens
T1 sequence (P43140 1-466): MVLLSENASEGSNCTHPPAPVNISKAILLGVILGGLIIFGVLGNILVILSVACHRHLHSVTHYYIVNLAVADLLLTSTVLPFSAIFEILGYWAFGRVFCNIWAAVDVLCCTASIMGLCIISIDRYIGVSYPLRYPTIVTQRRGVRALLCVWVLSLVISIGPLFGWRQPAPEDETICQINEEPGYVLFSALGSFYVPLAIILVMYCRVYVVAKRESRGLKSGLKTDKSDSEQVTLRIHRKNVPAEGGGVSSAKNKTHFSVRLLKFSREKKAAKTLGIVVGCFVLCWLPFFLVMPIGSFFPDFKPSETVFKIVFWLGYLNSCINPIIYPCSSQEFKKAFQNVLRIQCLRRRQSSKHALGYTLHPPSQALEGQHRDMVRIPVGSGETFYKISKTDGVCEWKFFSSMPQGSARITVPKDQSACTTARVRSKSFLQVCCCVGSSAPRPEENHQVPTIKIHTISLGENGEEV
In words: Alpha-blocking activity towards norepinephrine on isolated rat vas deferens. Type of data set: biochemical. Conditions: -log of concentration requiring doubled norepinephrine; for Kb: read-out: pA2 (converted). How it is done: Stimulation of the postsynaptic alpha-adrenergic receptors by norepinephrine causes contraction of the isolated vas deferens.
The concentration of product in whose presence the norepinephrine concentration must be doubled in order to obtain the same effect as in the absence of said product is determined. The logarithm of this concentration, with the opposite sign, constitutes the pA2 of the products.
Their alpha-blocking activity is high since it appears for low concentrations of between 10^-6 M and 10^-8 M.

Data set [3] deals with lethal effect of norepinephrine. In words: Adrenolytic activity in vivo on the lethal effect of norepinephrine in rats. The conditions noted are these: for ED50: Rattus norvegicus, wake male rats, norepinephrine 0.4 mg.kg^-1 intravenous, prior administration of product, read-out: ED50 (dose which protects 50% of the animals); for adrenolytic activity in the whole animals: rats, in words. How it is done: The intravenous injection of norepinephrine (0.4 mg.kg^-1) into wake male rats causes the death of 100% of the animals. The prior administration of a substance which has an alpha-blocking property makes it possible to reduce this toxicity.
The results are expressed in the form of the 50% effective dose (ED50), i.e. the dose in mg.kg^-1 which protects 50% of the animals (Table 5).

The subject of data set [4] is femoral blood pressure and heart rate. In words: Cardiovascular activity (blood pressure and heart rate) in anesthetized rats. Type of data set: in vivo. The conditions noted are these: for hypotensive potential compared with nicardipine: ED25 values 5 min after I.V. injection, in words; for Heart rate, maximum effect in % / ED25: I.V., pentobarbital-anesthetized rats; for ED25: Rattus norvegicus, iv, 25% drop in average blood pressure. Here is the method: The cardiovascular effects of three products were studied in rats anesthetized with pentobarbital and placed under artificial respiration. The femoral blood pressure and the heart rate are recorded by means of a GOULD-BRUSH apparatus.
The products are administered intravenously in increasing doses. Three animals are tested per product. The dose which causes a 25% drop in average blood pressure (ED25) was evaluated for each product and compared with nicardipine 1 to 5 min after administration.
The products have dose-dependent hypotensive effects but have little or no effect on the heart rate (Table 7). The most hypotensive in terms of the effective dose is B 1395 (ED25 of 0.004 mg.kg^-1).

Setting [5] is: 1 min, 1 minute, read-out: Blood pressure: Hypotension, ED25 at 1 minute.
Setting [6] is: 5 min, 5 minutes, read-out: Blood pressure: Hypotension, ED25 at 5 minutes.

Each structure is given as a SMILES string. Read-outs that look alike come from different tables or passages of the source. Where only a bound is given, the exact number is not on record here.

As for `Cc1ncsc1OCCN1CCN(c2cccc(C(F)(F)F)c2)CC1` [B 1194, 4-methyl-5-[2-(4-m-trifluoromethylphenylpiperazin-1yl)ethoxy]thiazole], in data set [1], the 50% lethal dose (LD50) at 336 h is more than 1000 mg/kg. Further, the Kb in data set [2] was 2570 nM. The median effective dose (ED50) in data set [3] amounted to 200 mg/kg.
The corresponding values for `COc1ccccc1N1CCN(CCOc2scnc2C)CC1` [B 1223, 4-methyl-5-[2-(4-o-methoxyphenylpiperazin-1-yl)ethoxy]thiazole] are more than 1000 mg/kg, 269 nM and 13 mg/kg.
The corresponding values for `Cc1ncsc1OCCN1CCN(c2ccc(F)cc2)CC1` [B 1227, 4-methyl-5-[2-(4-p-fluorophenylpiperazin-1-yl)ethoxy]thiazole] are 1000 mg/kg, more than 1000 nM and 30 mg/kg.
On to `CCCOc1ccccc1N1CCN(CCOc2scnc2C)CC1` [B 1242], for which the “adrenolytic activity in the whole animals” value (“adrenolytic activity” for short) in data set [3] is listed as “very active”.
Compound `Cc1cc(Cl)ccc1N1CCN(CCOc2scnc2C)CC1` [B 1259, 4-methyl-5-[2-[4-(4-chloro-2-methylphenyl)piperazin-1-yl]ethoxy]thiazole] gave an LD50 at 336 h in data set [1] of 630 mg/kg. Besides, the Kb in data set [2] was 1350 nM. For the same compound, the ED50 in data set [3] stood at 45 mg/kg.
The corresponding values for `Cc1ccc(Cl)cc1N1CCN(CCOc2scnc2C)CC1` [B 1313, 4-methyl-5-[2-[4-(5-chloro-2-methylphenyl)piperazin-1-yl]ethoxy]thiazole] are 770 mg/kg, 81.3 nM and 109 mg/kg.
`CCOc1cccc(N2CCN(CCOc3scnc3C)CC2)c1` [B 1325, 4-methyl-5-[2-(4-m-ethoxyphenylpiperazin-1-yl)-ethoxy]thiazole] came in with an LD50 at 336 h in data set [1] of more than 1000 mg/kg. In addition, the Kb in data set [2] is 813 nM. In data set [3], the ED50 was found to be 49 mg/kg.
The corresponding values for `Cc1cccc(Cl)c1N1CCN(CCOc2scnc2C)CC1` [B 1366, 4-methyl-5-[2-[4-(6-chloro-2-methylphenyl)piperazin-1-yl]ethoxy]thiazole] are 740 mg/kg, more than 1000 nM and 100 mg/kg.
Turning to `Cc1ncsc1OCC(O)CN1CCN(c2ccccc2O)CC1` (stereo not shown) [B 1396, 3-(4-o-hydroxyphenylpiperazin-1-yl)-1-(4-methylthiazolyl-5-oxy)propan-2-ol], the median lethal dose (LD50) at 336 h in data set [1] stood at 315 mg/kg. Also, in data set [2], the Kb was 316 nM. Further, in data set [3], the 50% effective dose (ED50) was 0.6 mg/kg and the “adrenolytic activity” value was “very active”. For the same compound, in data set [4], the “hypotensive potential compared with nicardipine” value is reported as “on a level with that of nicardipine” and the “Heart rate, maximum effect in %” value came out at 0%. In addition, the ED25 in data set [4] (setting [5]) was found to be 0.008 mg/kg. Besides, the ED25 in data set [4] (setting [6]) came to 0.06 mg/kg.
Take `Cc1cc(Cl)ccc1N1CCN(CC(O)COc2scnc2C)CC1` (stereo not shown) [B 1406, 3-[4-(4-chloro-2-methylphenyl)piperazin-1-yl]-1-(4-methylthiazolyl-5-oxy)propan-2-ol]: in data set [1], the LD50 at 336 h came to 515 mg/kg. The compound further came in with a pA2 in data set [2] of 6.40. Besides, in data set [3], the ED50 was 8.1 mg/kg.
In data set [1], `Cc1ncsc1OCC(O)CN1CCN(c2ccccc2OC(C)C)CC1` (stereo not shown) [B 1429, 3-(4-o-isopropoxyphenylpiperazin-1-yl)-1-(4-methylthiazolyl-5-oxy)propan-2-ol] came in with an LD50 at 336 h of 428 mg/kg. Further, the Kb in data set [2] was 4.57 nM. Also, in data set [3], the ED50 amounted to 0.5 mg/kg and the “adrenolytic activity” value is “very active”. Besides, the “Heart rate, maximum effect in %” value in data set [4] was -5.1%. The ED25 in data set [4] (setting [5]) amounted to 0.016 mg/kg. The ED25 in data set [4] (setting [6]) amounted to 0.03 mg/kg.
For `Cc1ncsc1OCCN1CCN(c2ccccc2O)CC1` [B 1430, 4-methyl-5-[2-(4-o-hydroxyphenylpiperazin-1-yl)-ethoxy]thiazole], the LD50 at 336 h in data set [1] worked out at 305 mg/kg. Besides, the Kb in data set [2] was 229 nM. Further, the ED50 in data set [3] was determined as 8.3 mg/kg.
On to `Cc1ncsc1OCC(O)CN1CCN(c2ccccc2OCC(C)C)CC1` (stereo not shown) [B 1431, 3-(4-o-phenylpiperazin-1-yl)-1-(4-methylthiazolyl-5-oxy)propan-2-ol], for which the 50% lethal dose (LD50) at 336 h in data set [1] was determined as 1000 mg/kg. In addition, in data set [2], the Kb is 7.41 nM. Further, in data set [3], the 50% effective dose (ED50) was 0.4 mg/kg and the “adrenolytic activity” value is reported as “very active”. Further, in data set [4], the “hypotensive potential compared with nicardipine” value is “on a level with that of nicardipine” and the “Heart rate, maximum effect in %” value is reported as -12%. Moreover, the ED25 in data set [4] (setting [5]) stood at 0.1 mg/kg. For the same compound, the ED25 in data set [4] (setting [6]) worked out at 0.24 mg/kg.
In turn, `Cc1ncsc1OCC(O)CN1CCN(c2cccc(C(F)(F)F)c2)CC1` (stereo not shown) [B 1489, 3-(4-m-trifluoromethylphenylpiperazin-1-yl)-1-(4-methylthiazolyl-5-oxy)propan-2-ol] came in with an LD50 at 336 h in data set [1] of more than 1000 mg/kg. Also, the ED50 in data set [3] was found to be 59.7 mg/kg.
With `COc1ccccc1N1CCN(CC(O)COc2scnc2C)CC1` (stereo not shown) [B 1510, 3-(4-o-methoxyphenylpiperazin-1-yl)-1-(4-methylthiazolyl-5-oxy)propan-2-ol], in data set [1], the LD50 at 336 h turned out to be 235 mg/kg. In addition, the Kb in data set [2] is 21.4 nM. Besides, the ED50 in data set [3] amounted to 0.52 mg/kg. The “adrenolytic activity” value in data set [3] is listed as “very active”. For the same compound, the “Heart rate, maximum effect in %” value in data set [4] is listed as -6%. In addition, the ED25 in data set [4] (setting [5]) and in data set [4] (setting [6]) was 0.01 mg/kg each time.
`CCCCCOc1ccccc1N1CCN(CC(O)COc2scnc2C)CC1` (stereo not shown) [B 1525, 3-(4-o-pentoxyphenylpiperazin-1-yl)-1-(4-methylthiazolyl-5-oxy)propan-2-ol] yielded an LD50 at 336 h in data set [1] of more than 1000 mg/kg. Moreover, in data set [2], the Kb was 7.94 nM. The 50% effective dose (ED50) in data set [3] was 1.27 mg/kg. Moreover, the “adrenolytic activity” value in data set [3] is listed as “very active”. Also, the “Heart rate, maximum effect in %” value in data set [4] was -8%. Further, the ED25 in data set [4] (setting [5]) and in data set [4] (setting [6]) was 0.04 mg/kg in each case.
In the case of `Cc1ncsc1OCC(O)CN1CCN(c2cccc(Cl)c2)CC1` (stereo not shown) [B 1548, 3-(4-m-chlorophenylpiperazin-1-yl)-1-(4-methylthiazolyl-5-oxy)propan-2-ol], the LD50 at 336 h in data set [1] was more than 500 mg/kg. In addition, in data set [3], the ED50 turned out to be 15.8 mg/kg and the “adrenolytic activity” value was “very active”.
`Cc1ncsc1OCC(O)CN1CCN(c2ccccc2OCCC(C)C)CC1` (stereo not shown) [B 1552, 3-(4-o-isopentoxyphenylpiperazin-1-yl)-1-(4-methylthiazolyl-5-oxy)propan-2-ol]: the median lethal dose (LD50) at 336 h in data set [1] is more than 1000 mg/kg. For the same compound, in data set [2], the Kb was 22.9 nM. For the same compound, in data set [3], the median effective dose (ED50) was determined as 1.55 mg/kg and the “adrenolytic activity” value is on record as “very active”. In data set [4], the “hypotensive potential compared with nicardipine” value is given as “on a level with that of nicardipine” and the “Heart rate, maximum effect in %” value is listed as -7.9%. The ED25 in data set [4] (setting [5]) stood at 0.12 mg/kg. In addition, the ED25 in data set [4] (setting [6]) amounted to 0.25 mg/kg.
For `Cc1ncsc1OCC(O)CN1CCN(c2ccccc2OCC(C)(C)C)CC1` (stereo not shown) [B 1562, 3-(4-o-neopentoxyphenylpiperazin-1-yl)-1-(4-methylthiazolyl-5-oxy)propan-2-ol], the LD50 at 336 h in data set [1] was more than 1000 mg/kg.
In the case of `COC(=O)C1=C(C)NC(C)=C(C(=O)OCCN(C)Cc2ccccc2)C1c1cccc([N+](=O)[O-])c1` (stereo not shown) [NICARDIPINE, nicardipine, reference compound], in data set [4], the “Heart rate, maximum effect in %” value was 0%. Moreover, the figures for the ED25 in data set [4] (setting [5]) and in data set [4] (setting [6]) were 0.0015 mg/kg and 0.2 mg/kg, respectively.

The term LD50 denotes the dose at which mortality reaches 50%. In general, ED50 refers to the dose at which the effect has come halfway, by size or by number of responders. Usually pA2 stands for the negative logarithm of the molar antagonist concentration that doubles the agonist concentration needed for the same response. A high value points to a more potent antagonist.
